Columns and labels:
[1] = molecular target: mDUSP-H1 (DUSP-H1 from monkeypox virus) (Monkeypox virus, UniProt A0A7H0DN78); experiment: biochemical; format: biochemical
[2] = tested on: normal human cell lines; conditions: cited from earlier work
[3] = tested on: HEK293; conditions: cited from earlier work
[4] = tested on: human dermal fibroblasts (HDF); conditions: cited from earlier work

mDUSP-H1 (DUSP-H1 from monkeypox virus), sequence (A0A7H0DN78 whole entry, looked up): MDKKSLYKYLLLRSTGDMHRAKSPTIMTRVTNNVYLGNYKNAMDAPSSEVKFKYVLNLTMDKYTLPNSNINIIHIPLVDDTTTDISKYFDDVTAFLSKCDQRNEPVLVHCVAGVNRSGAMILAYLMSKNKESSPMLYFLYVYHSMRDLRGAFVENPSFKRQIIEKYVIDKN

O=C(O[C@@H]1Cc2c(O)cc(O)cc2O[C@@H]1c1cc(O)c(O)c(O)c1)c1cc(O)c(O)c(O)c1 [(−)-Epigallocatechin gallate]
IC50 [1]: 14 ± 0.35 µM
mDUSP-H1 reactivity compared to the DMSO control [1]: significantly reduced reactivity

Oc1cc(O)c2c(c1)O[C@@H](c1cc(O)c(O)c(O)c1)[C@H](O)C2 [(−)-Gallocatechin]
IC50 [2]: > 100 µM
non-toxic concentration [2]: ≤ 100 µM
IC50 [1]: 9.56 ± 0.32 µM
mDUSP-H1 reactivity compared to the DMSO control [1]: significantly reduced reactivity

O=c1cc(-c2ccccc2)oc2cc(O)c(O)c(O)c12 [Baicalein]
IC50 [1]: 11.2 ± 0.14 µM
mDUSP-H1 reactivity compared to the DMSO control [1]: significantly reduced reactivity

COc1cc2oc(-c3ccc(O)c(O)c3)cc(=O)c2c(O)c1OC [Cirsiliol]
mDUSP-H1 reactivity compared to the DMSO control [1]: relatively unchanged

O=c1cc(-c2ccc(O)cc2)oc2c(-c3c(O)cc(O)c4c(=O)cc(-c5ccc(O)cc5)oc34)c(O)cc(O)c12 [Cupressuflavone]
IC50 [1]: 11.1 ± 0.18 µM
mDUSP-H1 reactivity compared to the DMSO control [1]: significantly reduced reactivity

COc1ccc(-c2cc(=O)c3c(O)cc(O)cc3o2)cc1O [Diosmetin]
inhibitory activity against mDUSP-H1 (in words) [1]: no significant inhibitory activity
mDUSP-H1 reactivity compared to the DMSO control [1]: relatively unchanged

O=c1c(O)c(-c2ccc(O)cc2)oc2c(O)c(O)cc(O)c12 [Herbacetin]
IC50 [1]: 12.71 ± 0.08 µM
mDUSP-H1 reactivity compared to the DMSO control [1]: significantly reduced reactivity

O=c1c(O)c(-c2cc(O)c(O)c(O)c2)oc2cc(O)cc(O)c12 [Myricetin]
IC50 [2]: > 100 µM
IC50 [3]: > 100 µM
mDUSP-H1 reactivity compared to the DMSO control [1]: significantly reduced reactivity
IC50 [4]: > 100 µM

C[C@@H]1O[C@@H](O[C@H]2[C@H](Oc3cc(O)c4c(c3)O[C@H](c3ccc(O)cc3)CC4=O)O[C@H](CO)[C@@H](O)[C@@H]2O)[C@H](O)[C@H](O)[C@H]1O [Naringin]
inhibitory activity against mDUSP-H1 (in words) [1]: little to no activity
mDUSP-H1 reactivity compared to the DMSO control [1]: relatively unchanged

COc1ccc(-c2cc(=O)c3c(O)c(OC)c(O[C@@H]4O[C@H](CO[C@@H]5O[C@@H](C)[C@H](O)[C@@H](O)[C@H]5O)[C@@H](O)[C@H](O)[C@H]4O)cc3o2)cc1 [Pectolinarin]
mDUSP-H1 reactivity compared to the DMSO control [1]: relatively unchanged

C[C@@H]1O[C@@H](Oc2c(-c3ccc(O)c(O)c3)oc3cc(O)cc(O)c3c2=O)[C@H](O)[C@H](O)[C@H]1O [Quercitrin]
inhibitory activity against mDUSP-H1 (in words) [1]: minimal inhibition
mDUSP-H1 reactivity compared to the DMSO control [1]: relatively unchanged
